Legend:
Type in all cases: cell-based
HeLa (cervical cancer) = test: Antiproliferative activity, CCK-8 cell viability; settings: Homo sapiens, 72 h, read-out: Inhibition of Cancerous Cells, HELA; for inhibition at 3.3 µM: compound concentration of 3.3 μM; for inhibition at 10 µM: compound concentration of 10 μM; for inhibition at 30 µM: compound concentration of 30 μM
[1] = system: MDA-MB-231 (breast cancer); test: Antiproliferative activity, CCK-8 cell viability; settings: Homo sapiens, 72 h, read-out: Inhibition of Cancerous Cells, MDA-MB-231; for inhibition at 3.3 µM: compound concentration of 3.3 μM; for inhibition at 10 µM: compound concentration of 10 μM; for inhibition at 30 µM: compound concentration of 30 μM
Method in brief: (§1)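 Viability relative to DMSO controls came from CCK-8 absorbance at 450 nm after 72 h exposure at 37°C. Compound concentrations were 3.3, 10 or 30 μM, in DMEM plus 10% FBS. Results are categorised by inhibition level: at least 50%, 30 to under 50%, or under 30%.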

[2] = system: A431 (epidermoid carcinoma); test: Antiproliferative activity, CCK-8 cell viability; settings: Homo sapiens, A-431, 72 h, read-out: Inhibition of Cancerous Cells, A431; for inhibition at 3.3 µM: compound concentration of 3.3 μM; for inhibition at 10 µM: compound concentration of 10 μM; for inhibition at 30 µM: compound concentration of 30 μM
Method in brief: as §1

[3] = system: B16F10 (malignant melanoma); test: Antiproliferative activity, CCK-8 cell viability; settings: Mus musculus, B16-F10, 72 h, read-out: Inhibition of Cancerous Cells, B16F10; for inhibition at 3.3 µM: compound concentration of 3.3 μM; for inhibition at 10 µM: compound concentration of 10 μM; for inhibition at 30 µM: compound concentration of 30 μM
Method in brief: as §1

HepG2 (liver cancer) = test: Antiproliferative activity, CCK-8 cell viability; settings: Homo sapiens, 72 h, read-out: Inhibition of Cancerous Cells, HepG2; for inhibition at 3.3 µM: compound concentration of 3.3 μM; for inhibition at 10 µM: compound concentration of 10 μM; for inhibition at 30 µM: compound concentration of 30 μM
Method in brief: as §1

SW480 (colon cancer) = test: Antiproliferative activity, CCK-8 cell viability; settings: Homo sapiens, 72 h, read-out: Inhibition of Cancerous Cells, SW480; for inhibition at 3.3 µM: compound concentration of 3.3 μM; for inhibition at 10 µM: compound concentration of 10 μM; for inhibition at 30 µM: compound concentration of 30 μM
Method in brief: as §1

[4] = system: A549 (lung adenocarcinoma); test: Antiproliferative activity, CCK-8 cell viability; settings: Homo sapiens, 72 h, read-out: Inhibition of Cancerous Cells, A549; for inhibition at 3.3 µM: compound concentration of 3.3 μM; for inhibition at 10 µM: compound concentration of 10 μM; for inhibition at 30 µM: compound concentration of 30 μM
[5] = system: alpha-smooth muscle actin (α-SMA); test: Inhibition of TGF-β induced expression of alpha-smooth muscle actin in CFSC cells (western blot); settings: compound at 10 μM, TGF-β (10 ng/mL), 24 hours
Method in brief: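 Read-out is percent decrease in α-SMA western-blot band intensity, β-actin also probed, relative to TGF-β-only cells. CFSC cells were co-treated for 24 h at 37 °C with 10 ng/mL TGF-β and 10 μM compound in serum-free DMEM.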

Compound | inhibition at 3.3 µM (HeLa (cervical cancer)) | inhibition at 10 µM (HeLa (cervical cancer)) | inhibition at 30 µM (HeLa (cervical cancer)) | inhibition at 3.3 µM [1] | inhibition at 10 µM [1] | inhibition at 30 µM [1] | inhibition at 3.3 µM [2] | inhibition at 10 µM [2] | inhibition at 30 µM [2] | inhibition at 3.3 µM [3] | inhibition at 10 µM [3] | inhibition at 30 µM [3] | inhibition at 3.3 µM (HepG2 (liver cancer)) | inhibition at 10 µM (HepG2 (liver cancer)) | inhibition at 30 µM (HepG2 (liver cancer)) | inhibition at 3.3 µM (SW480 (colon cancer)) | inhibition at 10 µM (SW480 (colon cancer)) | inhibition at 30 µM (SW480 (colon cancer)) | inhibition at 3.3 µM [4] | inhibition at 10 µM [4] | also measured
CC1=C(CC(=O)NO)c2cc(F)ccc2/C1=C\c1ccc(C(C)(C)C)cc1 [Compound D42, (Z)-2-(1-(4-(Tert-butyl)benzylidene)-5-fluoro-2-methyl-1H-inden-3-yl)-N-hydroxyacetamide] | 30 to 50% | ≥ 50% | ≥ 50% | ≥ 50% | ≥ 50% | ≥ 50% | ≥ 50% | ≥ 50% | ≥ 50% | ≥ 50% | ≥ 50% | ≥ 50% | < 30% | 30 to 50% | ≥ 50% | ≥ 50% | ≥ 50% | ≥ 50% | ≥ 50% | ≥ 50% | inhibition at 30 µM [4]: ≥ 50%; inhibition at 10 µM [5]: 50 to 80%
CC1=C(CC(=O)O)c2cc(F)ccc2/C1=C/c1ccc(Oc2ccc(F)c(F)c2)cc1 [Compound E1, 2-[(1E)-5-Fluoro-2-methyl-1-({4-[3,4-difluorophenoxy]phenyl}methylidene)-1H-inden-3-yl]acetic acid] | 30 to 50% | ≥ 50% | ≥ 50% | ≥ 50% | ≥ 50% | ≥ 50% | 30 to 50% | ≥ 50% | ≥ 50% | < 30% | 30 to 50% | ≥ 50% | ≥ 50% | ≥ 50% | ≥ 50% | ≥ 50% | ≥ 50% | ≥ 50% | 30 to 50% | ≥ 50% | inhibition at 30 µM [4]: ≥ 50%; inhibition at 10 µM [5]: ≥ 80%
CC1=C(CC(=O)O)c2cc(F)cc(F)c2/C1=C/c1ccc(Oc2ccc(F)cc2)cc1 [Compound E4, 2-[(1E)-5,7-Difluoro-2-methyl-1-({4-[4-fluorophenoxy]phenyl}methylidene)-1H-inden-3-yl]acetic acid] | 30 to 50% | ≥ 50% | ≥ 50% | ≥ 50% | ≥ 50% | ≥ 50% | < 30% | ≥ 50% | ≥ 50% | ≥ 50% | ≥ 50% | ≥ 50% | ≥ 50% | ≥ 50% | ≥ 50% | < 30% | ≥ 50% | ≥ 50% | < 30% | 30 to 50% | inhibition at 30 µM [4]: ≥ 50%; inhibition at 10 µM [5]: ≥ 80%
CC1=C(CC(=O)O)c2cc(F)cc(F)c2/C1=C/c1cccc(Oc2ccccc2)c1 [Compound E7, 2-[(1E)-5,7-Difluoro-1-(3-(phenoxy)benzylidene)-2-methyl-1H-inden-3-yl]-acetic acid] | 30 to 50% | ≥ 50% | ≥ 50% | ≥ 50% | ≥ 50% | ≥ 50% | 30 to 50% | ≥ 50% | ≥ 50% | ≥ 50% | ≥ 50% | ≥ 50% | ≥ 50% | ≥ 50% | ≥ 50% | < 30% | ≥ 50% | ≥ 50% | < 30% | < 30% | inhibition at 30 µM [4]: ≥ 50%; inhibition at 10 µM [5]: ≥ 80%

Reference: patent US20240116845A1, “INDENE COMPOUNDS, PHARMACEUTICAL COMPOSITIONS THEREOF, AND THEIR THERAPEUTIC APPLICATIONS” (NucMito Pharmaceuticals Co., Ltd., priority 2021, published 2024)
